{"source": "patent US10323041B2", "about": "“Bicyclic derivatives, a process for their preparation and pharmaceutical compositions containing them” (LES LABORATOIRES SERVIER, priority 2015, dated 2019)", "data": [{"molecular_target": "Mcl-1 protein (Homo sapiens, UniProt Q07820)", "sequence (Q07820 whole entry)": "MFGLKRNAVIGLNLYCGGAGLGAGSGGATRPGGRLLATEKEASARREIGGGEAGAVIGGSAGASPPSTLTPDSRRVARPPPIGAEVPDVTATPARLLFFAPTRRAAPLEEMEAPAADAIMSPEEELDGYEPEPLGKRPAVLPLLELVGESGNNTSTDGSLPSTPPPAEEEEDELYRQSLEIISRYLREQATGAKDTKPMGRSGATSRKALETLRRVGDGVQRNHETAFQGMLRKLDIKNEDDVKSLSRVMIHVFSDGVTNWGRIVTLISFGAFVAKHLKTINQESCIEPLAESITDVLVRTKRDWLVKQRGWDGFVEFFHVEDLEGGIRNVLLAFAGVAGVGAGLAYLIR", "test": "Inhibition of Mcl-1 by the fluorescence polarisation technique", "format": "binding", "settings": "@ 10 μM test compound; partial inhibitors", "procedure": "(§1) The relative binding potency of each compound was determined via fluorescence Polarisation (FP). The method utilised a Fluorescein labelled ligand Fluorescein-βAla-Ahx-[A-REIGAQLRRMADDLNAQY (SEQ ID NO: 1)]-OH; mw 2,765) which binds to the Mcl-1 protein (such that corresponds to the UniProtKB® primary accession number: Q07820) leading to an increased anisotropy measured in milli-polarisation (mP) units using a reader. The addition of a compound which binds competitively to the same site as the ligand will result in a greater proportion of unbound ligand in the system indicated by a decrease in mP units.\n(§2) Method 1: An 11 point serial dilution of each compound was prepared in DMSO and 2 μl transferred into flat bottomed, low binding, 384-well plate (final DMSO concentration 5%). 38 μl of buffer (10 mM 4-(2-hydroxyethyl)-1-piperazineethanesulfonic acid [HEPES], 150 mM NaCl, 0.05% Tween 20, pH 7.4), containing the Fluorescein labelled ligand (final concentration 1 nM) and Mcl-1 protein (final concentration 5 nM) was then added.\n(§3) Assay plates were incubated ˜2 hours at room temperature before FP was measured on a […] Synergy2 reader (Ex. 528 nm, Em. 640 nm, Cut off 510 nm) and mP units calculated. The binding of increasing doses of test compound was expressed as a percentage reduction in mP compared to a window established between ‘5% DMSO only’ and ‘100% inhibition’ controls. 11-point dose response curves were plotted with XL-Fit software using a 4-Parameter Logistic Model (Sigmoidal Dose-Response Model) and the inhibitory concentrations that gave a 50% reduction in mP (IC50) were determined. Results obtained using Method 1 are presented in Table 1 below; IC50 of Mcl-1 inhibition obtained using Method 1 are not underlined.\n(§4) Method 2: An 11 point serial dilution of each compound was prepared in DMSO and 2 μl transferred into flat bottomed, low binding, 384-well plate (final DMSO concentration 5%). 38 μl of buffer (20 mM Na2HPO4, 1 mM EDTA, 50 mM NaCl, pH 7.4), containing the Fluorescein labelled ligand (final concentration 10 nM) and Mcl-1 protein (final concentration 10 nM) was then added.\nas §3, with “inhibition’ controls (50 μM unlabelled ligand).” for “inhibition’ controls.”, “Method 2” for “Method 1”, “are” for “are not”", "units": {"percentage fluorescence polarization inhibition": "% @ 10 μM"}, "values": [{"smiles": "COc1ccccc1CC(Oc1cccc2oc(-c3ccc(F)cc3)c(-c3ccc(OCCN4CCN(C)CC4)c(Cl)c3C)c12)C(=O)O", "note": "[Example 61, (2R)-2-{[(3Ra)-3-{3-chloro-2-methyl-4-[2-(4-methylpiperazin-1-yl)ethoxy]phenyl}-2-(4-fluorophenyl)-1-benzofuran-4-yl]oxy}-3-(2-methoxyphenyl)propanoic acid]", "percentage fluorescence polarization inhibition": 52.8}]}, {"molecular_target": "Mcl-1 protein (Homo sapiens, UniProt Q07820)", "test": "Inhibition of Mcl-1 by the fluorescence polarisation technique", "format": "binding", "settings": "@ 50 μM test compound; partial inhibitors", "procedure": "as §1, §2, §3, §4\nas §3, with “inhibition’ controls (50 μM unlabelled ligand).” for “inhibition’ controls.”, “Method 2” for “Method 1”, “are” for “are not”", "units": {"percentage fluorescence polarization inhibition": "% @ 50 μM"}, "values": [{"smiles": "CCc1c(-c2cccc(Cl)c2C)c2c(NC(Cc3ccccc3)C(=O)O)ncnc2n1CC(F)(F)F", "note": "[Example 28, N-[(5Ra)-5-(3-chloro-2-methylphenyl)-6-ethyl-7-(2,2,2-trifluoroethyl)-7H-pyrrolo[2,3-d]pyrimidin-4-yl]-D-phenylalanine]", "percentage fluorescence polarization inhibition": 63.25}, {"smiles": "CCc1c(-c2cccc(Cl)c2C)c2c(NC(Cc3ccccc3)C(=O)O)ncnc2n1C", "note": "[Example 20, N-[(5Ra)-5-(3-chloro-2-methylphenyl)-6-ethyl-7-methyl-7H-pyrrolo[2,3-d]pyrimidin-4-yl]-D-phenylalanine]", "percentage fluorescence polarization inhibition": 64.8}]}, {"molecular_target": "Mcl-1 protein (Homo sapiens, UniProt Q07820)", "test": "Inhibition of Mcl-1 by the fluorescence polarisation technique", "format": "binding", "settings": "@ 50 μM test compound; partial inhibitors; 50 µM", "procedure": "as §1, §2, §3, §4\nas §3, with “inhibition’ controls (50 μM unlabelled ligand).” for “inhibition’ controls.”, “Method 2” for “Method 1”, “are” for “are not”", "units": {"percentage fluorescence polarization inhibition": "% @ 50 μM"}, "values": [{"smiles": "CCc1c(-c2cccc(Cl)c2C)c2c(N[C@H](Cc3ccccc3)C(=O)O)ncnc2n1C(C)C", "note": "[Example 38, N-[(5Ra)-5-(3-chloro-2-methylphenyl)-6-ethyl-7-(propan-2-yl)-7H-pyrrolo[2,3-d]pyrimidin-4-yl]-D-phenylalanine]", "percentage fluorescence polarization inhibition": 67}]}, {"molecular_target": "Mcl-1 protein (Homo sapiens, UniProt Q07820)", "test": "Inhibition of Mcl-1 by the fluorescence polarisation technique", "format": "binding", "settings": "@ 50 μM test compound; partial inhibitors; read-out: percentage fluorescence polarization inhibition", "procedure": "as §1, §2, §3, §4\nas §3, with “inhibition’ controls (50 μM unlabelled ligand).” for “inhibition’ controls.”, “Method 2” for “Method 1”, “are” for “are not”", "units": {"inhibition at 50 µM": "%"}, "values": [{"smiles": "Cc1c(Cl)cccc1-c1c2n(c3ncnc(N[C@H](Cc4ccccc4)C(=O)O)c13)CCC2", "note": "[Example 46, N-[5-(3-chloro-2-methylphenyl)-7,8-dihydro-6H-pyrimido[5,4-b]pyrrolizin-4-yl]-D-phenylalanine]", "inhibition at 50 µM": 71}]}, {"molecular_target": "Mcl-1 protein (Homo sapiens, UniProt Q07820)", "test": "Inhibition of Mcl-1 by the fluorescence polarisation technique", "format": "binding", "settings": "Method 1 (not underlined) or Method 2 (underlined); underlining not visible; first value where cell prints two; read-out: IC50 (M) Mcl-1 FP", "procedure": "as §1, §2, §3, §4\nas §3, with “inhibition’ controls (50 μM unlabelled ligand).” for “inhibition’ controls.”, “Method 2” for “Method 1”, “are” for “are not”", "units": {"IC50": "M"}, "values": [{"smiles": "Cc1c(-c2c(-c3ccc(F)cc3)oc3cc(F)cc(OC(Cc4ccccc4OCC(F)(F)F)C(=O)O)c23)ccc(OCCN2CCN(C)CC2)c1Cl", "note": "[Example 66, (2R)-2-{[(3Sa)-3-{3-chloro-2-methyl-4-[2-(4-methylpiperazin-1-yl)ethoxy]phenyl}-6-fluoro-2-(4-fluorophenyl)-1-benzofuran-4-yl]oxy}-3-[2-(2,2,2-trifluoroethoxy)phenyl]propanoic acid]", "IC50": "1.6e-06"}, {"smiles": "COc1ccccc1-c1nccc(COc2ccccc2CC(Oc2cccc3sc(-c4ccc(F)cc4)c(-c4ccc(OCCN5CCN(C)CC5)c(Cl)c4C)c23)C(=O)O)n1", "note": "(single isomer, unassigned) [Example 52]", "IC50": "1.6e-06"}, {"smiles": "CCc1c(-c2cccc(Cl)c2C)c2c(NC(Cc3ccccc3)C(=O)O)ncnc2n1C", "note": "[Example 21, N-[(5Sa)-5-(3-chloro-2-methylphenyl)-6-ethyl-7-methyl-7H-pyrrolo[2,3-d]pyrimidin-4-yl]-D-phenylalanine]", "IC50": "8.7e-06"}, {"smiles": "CCc1c(-c2cccc3ccccc23)c2c(N[C@H](Cc3ccccc3)C(=O)O)ncnc2n1CCCc1ccccc1", "note": "(single isomer, unassigned) [Example 18, N-[6-ethyl-5-(naphthalen-1-yl)-7-(3-phenylpropyl)-7H-pyrrolo[2,3-d]pyrimidin-4-yl]-D-phenylalanine]", "IC50": "3.1e-06"}, {"smiles": "COc1ccccc1-c1nccc(COc2ccccc2CC(Oc2cccc3c2c(-c2ccc(OCCN4CCN(C)CC4)c(Cl)c2C)c(-c2ccc(F)cc2)n3C)C(=O)O)n1", "note": "(single isomer, unassigned) [Example 68]", "IC50": "1.2e-06"}, {"smiles": "CCc1c(-c2cccc3ccccc23)c2c(N[C@H](Cc3ccccc3)C(=O)O)ncnc2n1CCOc1cccc2ccccc12", "note": "(single isomer, unassigned) [Example 14, N-{6-ethyl-5-(naphthalen-1-yl)-7-[2-(naphthalen-1-yloxy)ethyl]-7H-pyrrolo[2,3-d]pyrimidin-4-yl}-D-phenylalanine]", "IC50": "1.2e-05"}, {"smiles": "CCc1c(-c2cccc(Cl)c2C)c2c(NC(Cc3ccccc3)C(=O)O)ncnc2n1CCC1CCCC1", "note": "(single isomer, unassigned) [Example 30, N-[(5Ra)-5-(3-chloro-2-methylphenyl)-7-(2-cyclopentylethyl)-6-ethyl-7H-pyrrolo[2,3-d]pyrimidin-4-yl]-D-phenylalanine]", "IC50": "6.4e-06"}, {"smiles": "CCc1c(-c2cccc3ccccc23)c2c(N[C@H](Cc3ccccc3)C(=O)O)ncnc2n1CCOc1cccc2ccccc12", "note": "(single isomer, unassigned) [Example 15, N-{6-ethyl-5-(naphthalen-1-yl)-7-[2-(naphthalen-1-yloxy)ethyl]-7H-pyrrolo[2,3-d]pyrimidin-4-yl}-D-phenylalanine]", "IC50": "7.3e-06"}, {"smiles": "COc1ccccc1CC(Oc1cccc2c(Cl)c(-c3ccc(F)cc3)n(-c3ccc(OCCN4CCN(C)CC4)c(Cl)c3C)c12)C(=O)O", "note": "[Example 57, (2R)-2-{[3-chloro-(1Sa)-1-{3-chloro-2-methyl-4-[2-(4-methylpiperazin-1-yl)ethoxy]phenyl}-2-(4-fluorophenyl)-1H-indol-7-yl]oxy}-3-(2-methoxyphenyl)propanoic acid]", "IC50": "1.7e-07"}, {"smiles": "CCc1c(-c2cccc3ccccc23)c2c(N[C@H](Cc3ccccc3)C(=O)O)ncnc2n1Cc1ccccc1", "note": "(single isomer, unassigned) [Example 13, N-[7-benzyl-6-ethyl-5-(naphthalen-1-yl)-7H-pyrrolo[2,3-d]pyrimidin-4-yl]-D-phenylalanine]", "IC50": "6.6e-07"}, {"smiles": "Cc1c(-c2c(-c3ccc(F)cc3)oc3ncnc(O[C@H](Cc4ccccc4OCc4ccnn4C(C)(C)C)C(=O)O)c23)ccc(OCCN(C)C)c1Cl", "note": "[Example 6, (2R)-3-{2-[(1-tert-butyl-1H-pyrazol-5-yl)methoxy]phenyl}-2-{[5-{3-chloro-4-[2-(dimethylamino)ethoxy]-2-methylphenyl}-6-(4-fluorophenyl)furo[2,3-d]pyrimidin-4-yl]oxy}propanoic acid]", "IC50": "8.9e-09"}, {"smiles": "CCc1c(-c2cccc(Cl)c2C)c2c(NC(Cc3ccccc3)C(=O)O)ncnc2n1Cc1cccc2ccccc12", "note": "(single isomer, unassigned) [Example 32, N-[(5Ra)-5-(3-chloro-2-methylphenyl)-6-ethyl-7-(naphthalen-1-ylmethyl)-7H-pyrrolo[2,3-d]pyrimidin-4-yl]-D-phenylalanine]", "IC50": "3.5e-06"}, {"smiles": "CCc1c(-c2cccc(Cl)c2C)c2c(NC(Cc3ccccc3)C(=O)O)ncnc2n1CC(F)(F)F", "note": "[Example 29, N-[(5Sa)-5-(3-chloro-2-methylphenyl)-6-ethyl-7-(2,2,2-trifluoroethyl)-7H-pyrrolo[2,3-d]pyrimidin-4-yl]-D-phenylalanine]", "IC50": "8.5e-06"}, {"smiles": "CCc1c(-c2cccc(Cl)c2C)c2c(NC(Cc3ccccc3)C(=O)O)ncnc2n1CCC1CCCC1", "note": "(single isomer, unassigned) [Example 31, N-[(5Sa)-5-(3-chloro-2-methylphenyl)-7-(2-cyclopentylethyl)-6-ethyl-7H-pyrrolo[2,3-d]pyrimidin-4-yl]-D-phenylalanine]", "IC50": "7.9e-07"}, {"smiles": "C=CCCn1c(Br)c(-c2cccc(Cl)c2C)c2c(NC(Cc3ccccc3)C(=O)O)ncnc21", "note": "(single isomer, unassigned) [Example 42, N-[6-bromo-7-(but-3-en-1-yl)-(5Sa)-5-(3-chloro-2-methylphenyl)-7H-pyrrolo[2,3-d]pyrimidin-4-yl]-D-phenylalanine]", "IC50": "4.5e-07"}, {"smiles": "C=CCn1c(Br)c(-c2cccc(Cl)c2C)c2c(NC(Cc3ccccc3)C(=O)O)ncnc21", "note": "[Example 44, N-[6-bromo-(5Sa)-5-(3-chloro-2-methylphenyl)-7-(prop-2-en-1-yl)-7H-pyrrolo[2,3-d]pyrimidin-4-yl]-D-phenylalanine]", "IC50": "2.5e-06"}, {"smiles": "Cn1cc(-c2cccc3ccccc23)c2c(N[C@H](Cc3ccccc3)C(=O)O)ncnc21", "note": "[Example 10, N-[7-methyl-5-(naphthalen-1-yl)-7H-pyrrolo[2,3-d]pyrimidin-4-yl]-D-phenylalanine]", "IC50": "1.8e-05"}, {"smiles": "CCc1c(-c2cccc3ccccc23)c2c(N[C@H](Cc3ccccc3)C(=O)O)ncnc2n1CCc1ccccc1", "note": "(single isomer, unassigned) [Example 17, N-[6-ethyl-5-(naphthalen-1-yl)-7-(2-phenylethyl)-7H-pyrrolo[2,3-d]pyrimidin-4-yl]-D-phenylalanine]", "IC50": "3.8e-06"}]}]}
